# Experimental data: PubChem BioAssay AID2060352 (Molecular Pharmacology Branch, DTP, NCI, 2025)
# “And” between values parts separate entries of the source, which are not always exact repeats. Equal entries are not always repeated.
# System: 616215-338-R-J1-PDC spheroid with HUVEC/MSC, viability
# Assay: Anticancer human tumor 616215-338-R-J1-PDC patient-derived colon adenocarcinoma cell line growth inhibition [TAK]
# Settings: for viability, T/C: stronger effect = lower value
# Description: Combinatorial screen of targeted agents with TAK-243 and ipatasertib in multi-cell type tumor spheroids
# A high-throughput screen of multi-cell type tumor spheroids was designed to identify active combinations of targeted small molecules and TAK-243 or ipatasertib. Complex spheroids include a stromal component modeled by human endothelial cells (HUVEC) and fibroblasts modeled by human mesenchymal stem cells (MSCs). The concentration ranges selected for each drug and investigational agent were based upon clinically achievable concentrations if the clinical Cmax of the agent was known.
# Compounds. The drugs and investigational agents: TAK-243 (785004), ipatasertib (767898), everolimus (733504), selumetinib (741078), bortezomib (756655), trametinib (758246), ixazomib (758254), vemurafenib (761431), dabrafenib (764134), sapanisertib (764658), alpelisib (765974), and copanlisib (816437), were obtained from the National Cancer Institute (NCI) Developmental Therapeutics Program Chemical Repository. The FDA-approved anticancer drug set is available from the NCI Developmental Therapeutics Program. […] The stock solutions were prepared in dimethyl sulfoxide (DMSO, Sigma-Aldrich, St. Louis, MO, cat. D2650) at 800-fold the tested concentration and stored at -70 degrees C prior to their use. All drugs and investigational agents were tested over a range starting from a high concentration at or near the clinical Cmax and decreasing in half-log increments. If the clinical Cmax for an agent had not been determined, the highest concentration tested was 10 microM.
# NCI60 Cell Culture. NCI60 cell lines were obtained from the NCI Developmental Therapeutics Program Tumor Repository. For each lot of cells, the Repository performed Applied Biosystems AmpFLSTR Identifiler testing with PCR amplification to confirm consistency with the published Identifier STR profile for each cell line. Cells were kept in continuous culture for no more than 20 passages. The optimal seeding densities for each of the cell lines at each time point assessed were determined prior to performing the concentration response studies. Briefly, the NCI60 human tumor lines were grown as monolayers in RPMI 1640 medium supplemented with 10% FBS and 2 mmol/L L-glutamine.
# An additional 2 lines were from the NCI60 cell line panel including melanomas, MALME-3M and SK-MEL-2. Pooled donor human umbilical vein endothelial cells (HUVEC, Lonza, cat. CC-2519) and human mesenchymal stem cells (hMSC, Lonza, cat. PT-2501) were purchased from Lonza (Walkersville, MD).
# PDMR cell lines were grown in complete medium (DC medium): Dulbecco's modified Eagle's medium (DMEM)/F12 supplemented with 5% fetal bovine serum (FBS), 2 mM L-glutamine, 100 U/mL penicillin and 100 µg/ml streptomycin, 0.4 µg/ml hydrocortisone, 10 ng/ml epidermal growth factor (EGF) recombinant human protein, 24 µg/mL adenine, and 0.1 mg/mL primocin. During culture from frozen stock vials, PDMR cells were cultured in the same medium containing 10 µM Y-27632 (see Table 3). The PDCs were cultured in complete DMEM/F12 media without 10 microM Y-27632 dihydrochloride for at least two passages prior to the screen. The pooled donor HUVEC and hMSC were cultured in endothelial cell growth medium 2 (PromoCell, Heidelberg, Germany, cat. C-22011) and mesenchymal stem cell growth medium 2 (PromoCell, cat. C-28009), respectively. For all experiments, HUVEC and hMSC were used at passages </=5.
# For the pre-screen, cell seeding densities were determined from a titration spanning the range from 5,000 to 313 cells per well. The mct-spheroids including 60% malignant cells, 25% HUVEC and 15% MSC dispensed as a mixture into U-bottom Ultra-Low Attachment 384-well plates (Corning, NY)
# High-throughput Drug Combination Screening.
# Prior to their inoculation into 384-well plates, malignant cells, HUVEC, and hMSC were removed from T flasks using TrypLE express (Thermo Fisher Scientific, cat. 12605036) and harvested by centrifugation for 5 min at 233 x g. […]
# [1] = curve of first compound, second compound 0.3 µM
# [2] = curve of first compound, second compound 0.949 µM
# [3] = curve of first compound, second compound 3 µM
# [4] = curve of first compound, second compound 9.49 µM
# [5] = curve of first compound, second compound 30 µM
# 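Note: spheroids exposed to drugs for 7 days before readout.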
compound,measurement,setting,value
Cn1cnc2c(F)c(Nc3ccc(Br)cc3Cl)c(C(=O)NOCCO)cc21 + CC(C)NCC(C(=O)N1CCN(c2ncnc3c2C(C)CC3O)CC1)c1ccc(Cl)cc1,IC50,[1],660 nM
same,IC50,[2],193 nM
same,IC50,[3],18.3 nM
same,IC50,[4],< 9.49 nM
same,IC50,[5],< 9.49 nM
same,"viability, T/C","second compound 0.3 µM, first compound 0.00949 µM",128%
same,"viability, T/C","second compound 0.3 µM, first compound 0.03 µM",145%
same,"viability, T/C","second compound 0.3 µM, first compound 0.0949 µM",134%
same,"viability, T/C","second compound 0.3 µM, first compound 0.3 µM",97.5%
same,"viability, T/C","second compound 0.3 µM, first compound 0.949 µM",28.6%
same,"viability, T/C","second compound 0.3 µM, first compound 3 µM",10.1%
same,"viability, T/C","second compound 0.949 µM, first compound 0.00949 µM",127%
same,"viability, T/C","second compound 0.949 µM, first compound 0.03 µM",110%
same,"viability, T/C","second compound 0.949 µM, first compound 0.0949 µM",68.7%
same,"viability, T/C","second compound 0.949 µM, first compound 0.3 µM",37.1%
same,"viability, T/C","second compound 0.949 µM, first compound 0.949 µM",16.3%
same,"viability, T/C","second compound 0.949 µM, first compound 3 µM",1.88%
same,"viability, T/C","second compound 3 µM, first compound 0.00949 µM",62.6%
same,"viability, T/C","second compound 3 µM, first compound 0.03 µM",39.6%
same,"viability, T/C","second compound 3 µM, first compound 0.0949 µM",26.2%
same,"viability, T/C","second compound 3 µM, first compound 0.3 µM",18.2%
same,"viability, T/C","second compound 3 µM, first compound 0.949 µM",7.02%
same,"viability, T/C","second compound 3 µM, first compound 3 µM",2.31%
same,"viability, T/C","second compound 9.49 µM, first compound 0.00949 µM",20.1%
same,"viability, T/C","second compound 9.49 µM, first compound 0.03 µM",16.6%
same,"viability, T/C","second compound 9.49 µM, first compound 0.0949 µM",12.3%
same,"viability, T/C","second compound 9.49 µM, first compound 0.3 µM",8.61%
same,"viability, T/C","second compound 9.49 µM, first compound 0.949 µM",3.42%
same,"viability, T/C","second compound 9.49 µM, first compound 3 µM",1.74%
same,"viability, T/C","second compound 30 µM, first compound 0.00949 µM",9.63%
same,"viability, T/C","second compound 30 µM, first compound 0.03 µM",9.43%
same,"viability, T/C","second compound 30 µM, first compound 0.0949 µM",6.77%
same,"viability, T/C","second compound 30 µM, first compound 0.3 µM",4.12%
same,"viability, T/C","second compound 30 µM, first compound 0.949 µM",1.89%
same,"viability, T/C","second compound 30 µM, first compound 3 µM",1.35%
CC(=O)Nc1cccc(-n2c(=O)n(C3CC3)c(=O)c3c(Nc4ccc(I)cc4F)n(C)c(=O)c(C)c32)c1,"viability, T/C",compound 94.9 pM,97% and 104%
same,"viability, T/C",compound 0.0003 µM,110% and 106%
same,"viability, T/C",compound 0.000949 µM,134% and 90.8%
same,"viability, T/C",compound 0.003 µM,90.5% and 64%
same,"viability, T/C",compound 0.00949 µM,33.2% and 29.1%
same,"viability, T/C",compound 0.03 µM,5.55% and 17.7%
same,IC50,curve of compound,6.78 nM and 4.71 nM
CC(C)n1nc(-c2ccc3oc(N)nc3c2)c2c(N)ncnc21 + CC(C)NCC(C(=O)N1CCN(c2ncnc3c2C(C)CC3O)CC1)c1ccc(Cl)cc1,IC50,[1],85.8 nM
same,IC50,[2],18.3 nM
same,IC50,[3],2.73 nM
same,IC50,[4],< 0.316 nM
same,IC50,[5],< 0.316 nM
same,"viability, T/C","second compound 0.3 µM, first compound 0.000316 µM",93.5%
same,"viability, T/C","second compound 0.3 µM, first compound 0.001 µM",99.9%
same,"viability, T/C","second compound 0.3 µM, first compound 0.00316 µM",107%
same,"viability, T/C","second compound 0.3 µM, first compound 0.01 µM",130%
same,"viability, T/C","second compound 0.3 µM, first compound 0.0316 µM",112%
same,"viability, T/C","second compound 0.3 µM, first compound 0.1 µM",41.2%
same,"viability, T/C","second compound 0.949 µM, first compound 0.000316 µM",112%
same,"viability, T/C","second compound 0.949 µM, first compound 0.001 µM",119%
same,"viability, T/C","second compound 0.949 µM, first compound 0.00316 µM",109%
same,"viability, T/C","second compound 0.949 µM, first compound 0.01 µM",66.6%
same,"viability, T/C","second compound 0.949 µM, first compound 0.0316 µM",36.7%
same,"viability, T/C","second compound 0.949 µM, first compound 0.1 µM",22.3%
same,"viability, T/C","second compound 3 µM, first compound 0.000316 µM",77.2%
same,"viability, T/C","second compound 3 µM, first compound 0.001 µM",74.2%
same,"viability, T/C","second compound 3 µM, first compound 0.00316 µM",43.5%
same,"viability, T/C","second compound 3 µM, first compound 0.01 µM",28.2%
same,"viability, T/C","second compound 3 µM, first compound 0.0316 µM",17.5%
same,"viability, T/C","second compound 3 µM, first compound 0.1 µM",13.7%
same,"viability, T/C","second compound 9.49 µM, first compound 0.000316 µM",28.6%
same,"viability, T/C","second compound 9.49 µM, first compound 0.001 µM",25.8%
same,"viability, T/C","second compound 9.49 µM, first compound 0.00316 µM",19%
same,"viability, T/C","second compound 9.49 µM, first compound 0.01 µM",13.1%
same,"viability, T/C","second compound 9.49 µM, first compound 0.0316 µM",11%
same,"viability, T/C","second compound 9.49 µM, first compound 0.1 µM",10.2%
same,"viability, T/C","second compound 30 µM, first compound 0.000316 µM",12.6%
same,"viability, T/C","second compound 30 µM, first compound 0.001 µM",11.5%
same,"viability, T/C","second compound 30 µM, first compound 0.00316 µM",11.4%
same,"viability, T/C","second compound 30 µM, first compound 0.01 µM",7.84%
same,"viability, T/C","second compound 30 µM, first compound 0.0316 µM",7.49%
same,"viability, T/C","second compound 30 µM, first compound 0.1 µM",7.08%
CC(C)(C)c1nc(-c2cccc(NS(=O)(=O)c3c(F)cccc3F)c2F)c(-c2ccnc(N)n2)s1,"viability, T/C",compound 0.0316 µM,104% and 106%
same,"viability, T/C",compound 0.1 µM,123% and 114%
same,"viability, T/C",compound 0.316 µM,132% and 107%
same,"viability, T/C",compound 1 µM,119% and 95.5%
same,"viability, T/C",compound 3.16 µM,73.2% and 54.6%
same,"viability, T/C",compound 10 µM,18.3% and 28.5%
same,IC50,curve of compound,5150 nM and 3870 nM
